Measurements from PMC7031302, “Design and synthesis of new energy restriction mimetic agents: Potent anti-tumor activities of hybrid motifs of aminothiazoles and coumarins” (Scientific Reports, 2020).

Key:
Format in all cases: cell-based, Human
[1] = tested on: Caspase 3/7 activities in HT-29 cells; assay: Caspase 3/7 activity assay, HT-29; conditions: HT-29, 72 h
Method: (§1) Based on this, the energy restriction mediated anticancer activity of the new coumarin tagged aminothiazole derivatives was investigated. The expression levels of PARP, p-Akt, Akt, p-AMPK, AMPK, β-TrCP, LC3A/B-I, LC3A/B-II, caspase-3, cyclin D1, and Bcl-2 proteins were determined by Western blot analysis after 72 h treatment of HT-29 and HCT116 at different concentrations based on the IC50 values of each compound (Fig. 3A,B). […] Moreover, the treatment with 9b and 9f induced caspase 3/7 activation, which was detected by caspase 3/7 activity assay and confirmed by Western blot. The activation of caspases was significant in 9b in both cell lines and significant with 9f in HCT116 cells only and minimal in HT-29 cells (Fig. 3C,D). On the other hand, both 9b and 9f induced dose-dependent proteolytic processing of PARP. […] Besides, the protein expression level of the anti-apoptotic protein, Bcl-2, was reduced in HCT116 upon treatment with both compounds.
Caspase-3/7 activities in HT-29 and HCT116 cells treated with candidate compounds were measured using Caspase-Glo 3/7 assay kit (Promega, Madison, WI, USA) following the manufacturer’s instructions. […] 50 µL of lysate and 50 µL of caspase substrate were added to a white opaque 96-well plate, and the luminescence was measured by Varioskan Flash multimode reader (Thermo-Scientific, Vantaa, Finland)

HT-29 [2] = assay: Western blot analysis, HT-29; conditions: for expression of LC3A-II and LC3B-II: HT-29 (CRC cell lines); for expression of LC3A-II and LC3B-II / p-mTOR and p-p70S6K levels: 72 h; for AMPK activation through phosphorylation / Akt phosphorylation / PARP cleavage: HT-29, 72 h
Method: as §1
Following 72 h of treatment, cells were lysed and the extracted proteins were quantified using DC protein assay kit (Bio-Rad, Hercules, CA, USA) following the manufacturer’s instructions. Proteins were resolved on 8% or 12% SDS-poly-acrylamide gels, then transferred onto a nitrocellulose membrane using a semi-dry transfer cell. The membranes were blocked in TBS-T containing 5% non-fat milk for 1 h and incubated overnight at 4 °C overnight with indicated primary antibodies (Cell Signaling Technologies, Beverly, MA, USA) and then incubated with goat anti-mouse or anti-rabbit secondary antibody (Cell Signaling Technologies, Beverly, MA, USA) for 1 h at room temperature. Detection was done using chemiluminescence substrate (Bio-Rad, Hercules, CA, USA). β-actin (Cell Signaling Technologies, Beverly, MA, USA) was used as a loading control.
The blots were captured with ChemiDoc Imaging System (Bio-Rad, Hercules, CA, USA) and bands were visualized with the Image Lab v5.2.1 software (Bio-Rad, Hercules, CA, USA).

HCT116 = assay: Glucose uptake assay, HCT116; conditions: HCT116, 16 h treatment, dose-dependent
Description: (§2) According to previous studies, ERMAs inhibited glucose utilization in cancer cells[13],[19]. Therefore, we investigated glucose uptake (Fig. 5A) upon treatment with 9b and 9f in HT-29 and HCT116 cells at different concentrations based on the IC50 of each compound. […] This effect is known to result in the accumulation of reactive oxygen species (ROS) and could play a role in glucose deprivation-induced cytotoxicity and oxidative stress in cancer cells. […] The observed increase in ROS levels could lead to oxidative stress and extensive cell death in the absence of NADPH detoxification.
CRC cells (1 × 10^4) were seeded into a 96-well plate overnight. Cells were treated with test compounds or vehicle (negative control) glucose-free RPMI-1640 medium for 16 h; then, the cells were incubated with 2 mM 2-DG for 10 minutes. Eventually, glucose uptake of cells was measured using Glucose Uptake-Glo Assay (Promega, Madison, WI, USA) according to the manufacturer’s instructions. Luminescence was measured post 2 h of incubation at room temperature using Varioskan Flash multimode reader (Thermo Scientific). Glucose uptake was normalized to the total protein content in the samples using DC protein assay kit (Bio-Rad, Hercules, CA, USA).

CRC cells = assay: NADPH/NADP+ assay; conditions: 48 h treatment
Description: as §2
(§3) NADPH/NADP+ and ROS concentrations were measured using the NADP/NADPH-Glo Assay Kit (Promega, Madison, WI, USA) and ROS-Glo H2O2 Assay (Promega, Madison, WI, USA), respectively, based on the manufacturer instructions. In NADPH/NADP+ assay, CRC cells were seeded into a 96-well flat-bottomed plate and incubated overnight. On the following day, cells were treated with the testing compound or vehicle for 48 h. At the endpoint of treatment, the media were aspirated and replaced with 60 µl PBS/well, then cells were lysed in 60 µl base solution with 1% dodecyl (trimethyl) ammonium bromide (Sigma-Aldrich-St. Louis, MO, USA). […] Luminescence was measured after 30 minutes using Varioskan Flash multimode reader (Thermo Scientific). […] Luminescence was measured after 20 min incubation at room temperature.

HT-29 [3] = assay: ROS-Glo H2O2 assay, HT-29; conditions: HT-29, 6 h incubation
Description: as §2, §3

Cc1cc(=O)oc2cc(Nc3nc(-c4ccc(Br)cc4)cs3)ccc12 [Compound 9b, 7-(4-(4-Bromophenyl)thiazol-2-ylamino)-4-methyl-2H-chromen-2-one]
activation of caspases (caspase 3/7) [1]: significant | expression of LC3A-II and LC3B-II (HT-29 [2]): induced the expression of LC3A-II and LC3B-II | p-mTOR and p-p70S6K levels (HT-29 [2]; HT-29, 0.5 µM): initial increase | AMPK activation through phosphorylation (HT-29 [2]): enhancement of AMPK activation | Akt phosphorylation (HT-29 [2]): inhibition of Akt phosphorylation | PARP cleavage (HT-29 [2]): induced PARP cleavage | p-mTOR and p-p70S6K levels (HT-29 [2]; HT-29, higher concentrations): decrease | glucose uptake (HCT116): inhibited significantly | NADPH/NADP+ ratio (CRC cells): significant decrease | generation of hydrogen peroxide (H2O2) and ROS (HT-29 [3]): significantly increased

Cc1cc(=O)oc2cc(Nc3nc(-c4cccc([N+](=O)[O-])c4)cs3)ccc12 [Compound 9f, 4-Methyl-7-(4-(3-Nitrophenyl)thiazol-2-ylamino)-2H-chromen-2-one]
activation of caspases (caspase 3/7) [1]: minimal | expression of LC3A-II and LC3B-II (HT-29 [2]): induced the expression of LC3A-II and LC3B-II | AMPK activation through phosphorylation (HT-29 [2]): enhancement of AMPK activation | Akt phosphorylation (HT-29 [2]): inhibition of Akt phosphorylation | PARP cleavage (HT-29 [2]): PARP cleavage only in HT-29 cells at the highest tested dose | p-mTOR and p-p70S6K levels (HT-29 [2]; HT-29, higher concentrations): decrease | glucose uptake (HCT116): inhibited significantly | NADPH/NADP+ ratio (CRC cells): significant decrease
